Where two headings read alike, the source gives them in different places.
Key:
[1] = system: anticipatory unfolded protein response (a-UPR); experiment: a-UPR immunoblotting/western blot in MCF-7 cells; type: cell-based
Description: a-UPR Immunoblotting/Western Blot Procedure. 400,000 MCF-7 cells/per well were seeded into 6 or 12 well plates and allowed to adhere overnight. Media was then aspirated from each well and then fresh media with diluted test compound (0.1% DMSO concentration) was added accordingly. Cells were incubated for 4 or 6 hours, then harvested. PBS-washed cell pellets were then lysed using RIPA buffer containing phosphatase (BioVision) and protease inhibitor cocktail (Calbiochem). Protein concentrations were determined using the BCA assay (Pierce). Lysates containing 10-15 μg of protein were loaded onto 4-20% gradient gels (BioRad), and SDS-PAGE was run. Proteins were then transferred onto membrane (PDVF Millipore) and blots blocked with BSA solution (2 g in 40 mL TBST) for one hour. After blocking, primary antibody was added and incubated overnight (using manufacturer's recommended dilutions). Following overnight incubation, blots were washed with TBST (5-minute incubation for each wash, washed 3 times), then incubated with HRP-linked secondary antibody for 1 hour in TBST. Blots were washed (10-minute incubation for each wash for a total of two ten-minute washes). SuperSignal West Pico Solution was then added following manufacturer's procedures and blots imaged with ChemiDoc.
Antibodies. […]

MCF-7 cells = experiment: Alamar blue fluorescence viability (IC50), MCF-7; type: cell-based; conditions: for IC50: Homo sapiens, MCF7
Description: (§1) Cancer Cell Lines: Culturing Conditions and Validation. All cell lines were cultured at 37° C. with 5% CO2. All ERα-positive cell lines were grown in media lacking phenol red. MCF-7 were grown in EMEM with 10% FBS and 1% penicillin-streptomycin (P/S). T47D were cultured in MEM with 10% FBS and 1% P/S. TYS and TDG cells were grown in MEM supplemented with 10% CD-FBS and 1% P/S. HCT-116 and MDA-MB-231 cells were cultured in RPMI-1640 supplemented with 10% FBS and 1% P/S. MDA-MB-436 cells were cultured in DMEM supplemented with 10% FBS and 1% P/S. HT-29 were cultured in McCoy's media supplemented with 10% FBS and 1% P/S. All cell lines were used directly from ATCC stocks and/or have been further authenticated using PowerPlex16HS Assay (Promega) as described previously.^54 In short, >1 million cells were harvested and lysed using the cell lysis buffer (50 mM Tris, 50 mM EDTA, 25 mM sucrose, 100 mM NaCl, 1% SDS, pH 8). DNA extraction and short tandem repeats (STRs) profiling for each cell line were carried out at the University of Arizona Genetics Core (UAGC). Autosomal STR profiles were compared to reference databases such as ATCC, DSMZ, and JCRB.
(§2) Alamar Blue Fluorescence for Anticancer Activity (IC50). 2,000-15,000 cells per well were seeded a 96-well plate. Cells were allowed to adhere before DMSO stock solutions of test compounds were added to each well with a final concentration of DMSO in each well=1%; final volume: 100 μL. At the end of the desired incubation time (e.g., 24 or 72 hours), media in each well was aspirated and new fresh media (no compound, 100 μL) was added. Alamar blue solution (4 mg resazurin per 40 mL PBS) was then added (10 μL). After 2-6 hours incubation, each well's fluorescence (λexcit.=555 nm, λemission.=585 nm) was measured using a SpectraMax M3 plate reader (Molecular Devices). Percent dead was determined by comparison to a 100% dead control: 100 μM raptinal treated cells. Dose dependent curves and IC50 were calculated using Origin Pro V10.

ERα− cancer cell lines = experiment: Selectivity of cell killing, ERα+ versus ERα− cancer cell lines; type: cell-based; conditions: MDA-MB-231, HCT-116, HT-29; for potencies against ERα− cancer cell lines (in words): 24- and 72-hour incubations
Description: as §1, §2

[2] = Simulated gastric fluid (SGF) stability assay; type: in vitro ADME; conditions: for half-life at 100 μM: simulated gastric fluid with pepsin, pH 1.2
Description: Simulated Gastric Fluid (SGF) Stability Assay. SGF was prepared fresh by adding 3.2 g pepsin (Sigma Aldrich P7000) to 1000 mL of SGF (Fischer Scientific 7108-16) and the pH adjusted to 1.2 using a pH meter. This SGFwith pepsin solution was then warmed to 37° C. 990 μL of warmed SGFwith pepsin was then aliquoted into multiple Eppendorf tubes, followed by 10 μL of 10 mM DMSO stock solutions of test compounds. Erythromycin (MedChemExpress HY-B0220) is a positive control for this stability assay. Samples were incubated at 37° C. for the entire experiment with vortexing every 15 minutes. At each desired time point (0, 15, 30, 60, 120 minutes), a 100 μL aliquot is removed and quenched into 50 μL of acetonitrile. Samples are stored at 4° C. until all time points are complete. Samples were then vortexed and then clarified at 3,000 RPM for 10 minutes in a 4° C. centrifuge. Supernatants were collected and compound concentrations determined by LC-MS/MS (UIUC Metabolomics Center, Urbana, IL.). Determined compound concentrations were used to calculate percent remaining compared to t=0 samples.

[3] = Pharmacokinetic (PK) studies in mice; type: in vivo
Description: Pharmacokinetic (PK) Studies. […] Mice were then sacrificed in cohorts of 3 at time points (#, #, #). Blood was collected, centrifuged, and plasma separated for quantification of test compound utilizing LC-MS/MS (UIUC Metabolomics Center, Urbana, IL.). Determined compound concentration was then analyzed using non-linear regression programing (WinNonlin) and pharmacokinetic parameters estimated.

T47D-ERαD538G (TDG) = experiment: Alamar blue fluorescence viability (IC50), TDG; type: cell-based; conditions: TDG, ERα positive, 24 hr; read-out: IC50 24 hr
Description: as §1, with “DNA extraction and short tandem repeats (STRs) profiling for each cell line were carried out at the University of Arizona Genetics Core (UAGC). Autosomal STR profiles were compared to reference databases such as ATCC, DSMZ, and JCRB.” left out
(§3) Alamar Blue Fluorescence for Anticancer Activity (IC50). […] After 2-6 hours incubation, each well's fluorescence (λexcit.=555 nm, λemission.=585 nm) was measured using a SpectraMax M3 plate reader (Molecular Devices). Percent dead was determined by comparison to a 100% dead control: 100 μM raptinal treated cells. Dose dependent curves and IC50 were calculated using Origin Pro V10.

canines = conditions: cited from earlier work
MDA-MB-231 = experiment: Alamar blue fluorescence viability (IC50), MDA-MB-231; type: cell-based; conditions: Homo sapiens, MDA-MB-231, ERα negative
Description: as §1, §2

[4] = Maximum tolerated dose (MTD) in rats; type: in vivo; conditions: Sprague Dawley, rat, in vivo, iv
Excerpt: (§4) Maximum Tolerated Dose (MTD) Experiments in Mice and Rats. […] Rodents were monitored for signs of distress, lethargy, neurotoxicity, and so forth for multiple days after compound administration. […] The MTD was defined as the maximum dose in which any acute side effects observed were tolerated and no lethality observed.

HT-29 = experiment: Alamar blue fluorescence viability (IC50), HT-29; type: cell-based; conditions: Homo sapiens, HT-29, ERα negative
Description: as §1, §2

T47D-ERaY537S (TYS) = experiment: Alamar blue fluorescence viability (IC50), TYS; type: cell-based; conditions: 24 h, read-out: IC50 24 hr (μM)
Description: as §1, with “DNA extraction and short tandem repeats (STRs) profiling for each cell line were carried out at the University of Arizona Genetics Core (UAGC). Autosomal STR profiles were compared to reference databases such as ATCC, DSMZ, and JCRB.” left out
as §3

MDA-MB-436 = experiment: Alamar blue fluorescence viability (IC50), MDA-MB-436; type: cell-based; conditions: Homo sapiens
Description: as §1, §2

[5] = Maximum tolerated dose (MTD) in mice; type: in vivo; conditions: female, CD-1, mouse, in vivo, iv
Excerpt: as §4

HCT-116 = experiment: Alamar blue fluorescence viability (IC50), HCT-116; type: cell-based; conditions: for IC50: Homo sapiens, HCT-116, ERα negative
Description: as §1, §2

MCF-7 tumors = experiment: MCF-7 orthotopic tumor model; type: in vivo, mice; conditions: I.V. 5 mg/kg once-a-week, three total doses
Description: MCF-7 Orthotopic Tumor Model. Nu/J ovariectomized mice (Jackson's lab) were supplemented with a 60-day E2 pellet (0.36 mg, Innovative Research of America) 2-3 days prior to tumor cell inoculation. MCF-7 cells (5×10^6, in 1:1 HBSS:matrigel) were inoculated into the mammary fat pad and allowed to establish and tumors grown to ˜300-400 mm^3 (˜21-28 days to establish). […] Tumor size was measured by caliper, and mouse weights were recorded.

T47D = experiment: Alamar blue fluorescence viability (IC50), T47D; type: cell-based; conditions: Homo sapiens, 24 h, read-out: IC50 24 hr (μM)
Description: as §1, with “DNA extraction and short tandem repeats (STRs) profiling for each cell line were carried out at the University of Arizona Genetics Core (UAGC). Autosomal STR profiles were compared to reference databases such as ATCC, DSMZ, and JCRB.” left out
as §3

[6] = system: CD Sprague Dawley IGS rats; experiment: Maximum tolerated dose (MTD) in rats; type: in vivo; conditions: rat, in vivo
Excerpt: as §4

[7] = In vitro metabolite assessment of ErSO; type: in vitro ADME
CD-1 mice = experiment: Maximum tolerated dose (MTD) in mice; type: in vivo; conditions: mouse, in vivo, iv
Excerpt: as §4

[8] = 100 μM in SGF with pepsin, one-phase decay, read-out: t1/2 (min) (95% CI)
[9] = MCF-7 cells, 24 hours, Alamar blue, mean ± s.e.m., read-out: IC50
[10] = female, CD-1, mouse, plasma, iv, I.V. 20 mg/kg

Structure (SMILES): O=C1Nc2c(C(F)(F)F)cccc2[C@]1(c1ccc(O)cc1)N1CCC(F)(F)CC1 (single isomer, unassigned) [(S)-2]
- a-UPR activation (P-AMPK, P-EIF2α, cleavage of ATF6α p90), western blot [1]: No activation of the a-UPR
- anticancer activity against MCF-7 cells (in words) (MCF-7 cells; MCF-7 cells): devoid of any activity

Structure (SMILES): O=C1Nc2c(C(F)(F)F)cccc2[C@@]1(c1ccc(O)cc1)N1CCCC(F)(F)C1 [(R)-23, (R)-3-(3,3-difluoropiperidin-1-yl)-3-(4-hydroxyphenyl)-7-(trifluoromethyl)indolin-2-one]
- potencies against ERα− cancer cell lines (in words) (ERα− cancer cell lines): double-digit micromolar
- % Remaining after 120 min (SD) ([2]; 100 μM in SGF with pepsin): 0±0%
- half-life at 100 μM [2, 8]: 10 min

Structure (SMILES): O=C1Nc2c(C(F)(F)F)cccc2[C@@]1(c1ccc(O)cc1)N1CCC(F)(F)C1 [(R)-24, (R)-3-(3,3-difluoropyrrolidin-1-yl)-3-(4-hydroxyphenyl)-7-(trifluoromethyl)indolin-2-one]
- potencies against ERα− cancer cell lines (in words) (ERα− cancer cell lines): double-digit micromolar
- % Remaining after 120 min (SD) ([2]; 100 μM in SGF with pepsin): 20±1%
- half-life at 100 μM [2, 8]: 62 min

Structure (SMILES): O=C1Nc2c(C(F)(F)F)cccc2[C@@]1(c1ccc(O)cc1)N1CC(F)(F)C(F)(F)C1 [Compound (R)-26, (R)-3-(4-hydroxyphenyl)-3-(3,3,4,4-tetrafluoropyrrolidin-1-yl)-7-(trifluoromethyl)indolin-2-one]
- IC50 (MCF-7 cells; MCF-7, 24 and 72 hr, read-out: IC50 values): 4 to 5 nM
- fold change MCF-7 versus ERα− cell lines (ERα− cancer cell lines): ≥ 3500
- potencies against ERα− cancer cell lines (in words) (ERα− cancer cell lines): double-digit micromolar
- % Remaining after 120 min (SD) ([2]; 100 μM in SGF with pepsin): 27±1%
- half-life at 100 μM [2, 8]: 77 min

Structure (SMILES): O=C1Nc2c(C(F)(F)F)cccc2[C@@]1(c1ccc(O)cc1)c1ccc(OC(F)(F)F)cc1 [ErSO, (R)-3-(4-hydroxyphenyl)-3-(4-(trifluoromethoxy)phenyl)-7-(trifluoromethyl)indolin-2-one, reference compound]
- IC50 (MCF-7 cells; MCF-7, ERα positive, 24 hr, read-out: IC50 24 hr): 20 ± 2 nM
- IC50 (MCF-7 cells; MCF-7, ERα positive, 72 hr, read-out: IC50 72 hr): 14 ± 1 nM
- IC50 (MCF-7 cells; [9]): 20 nM
- CL ([3]; I.V. 20 mg/kg): 33 mL/min/kg
- AUC [3, 10]: 10100 ng·h/mL
- Cmax [3, 10]: 7710 ng/mL
- Vd ([3]; female, CD-1, mouse, plasma, iv, I.V. 20 mg/kg, read-out: Vss): 10.2 L/kg
- bioavailability ([3]; female, CD-1, mouse, plasma, po, read-out: oral availability F %): 47%
- IC50 (T47D-ERαD538G (TDG)): 15 ± 1 nM
- tolerated oral dose (canines): greater than 150 mg/kg
- IC50 (MDA-MB-231; 24 hr, read-out: IC50 24 hr): 23000 ± 3000 nM
- IC50 (MDA-MB-231; 72 hr, read-out: IC50 72 hr): 8000 ± 1000 nM
- MTD [4]: 10 to 15 mg/kg
- IC50 (HT-29; 24 hr, read-out: IC50 24 hr): 210 ± 60 nM
- IC50 (HT-29; 72 hr, read-out: IC50 72 hr): 250 ± 70 nM
- IC50 (T47D-ERaY537S (TYS)): 0.01 ± 0.001 µM
- IC50 (MDA-MB-436; MDA-MB-436, 24 h, read-out: IC50 24 hr (μM)): 22 ± 1 µM
- IC50 (MDA-MB-436; MDA-MB-436, 72 h, read-out: IC50 72 hr (μM)): 14 ± 1 µM
- MTD [5]: 20 mg/kg
- effects bottom out at (% cell death at lower concentrations) (HCT-116; HCT-116 cells, bottom of IC50 curve): ~38%
- IC50 (HCT-116; 24 hr, read-out: IC50 24 hr): 11000 nM
- IC50 (HCT-116; 72 hr, read-out: IC50 72 hr): 260 nM
- % Remaining after 120 min (SD) ([2]; 100 μM in SGF with pepsin): 93±1%
- half-life at 100 μM ([2]; SGF with pepsin, read-out: half-life in SGF): > 120 min
- mouse weight change during MCF-7 study (MCF-7 tumors): no significant weight change
- IC50 (T47D): 0.02 ± 0.001 µM

Structure (SMILES): O=C1Nc2c(C(F)(F)F)cccc2[C@]1(c1ccc(OC(F)(F)F)cc1)c1ccc(O)c(O)c1 [ErSO-OH, (S)-3-(3,4-dihydroxyphenyl)-3-(4-(trifluoromethoxy)phenyl)-7-(trifluoromethyl)indolin-2-one]
- IC50 (MCF-7 cells; [9]): 24 nM
- rat tolerability (in words) [6]: no gains in rat tolerability
- abundance as metabolite of ErSO [7]: < 1%
- intravenous tolerability in mice (in words) (CD-1 mice): greater intravenous tolerability in mice
